Source: patent publication US6608082B1, “Treatment of erectile dysfunction using isoquinoline compound melanocortin receptor ligands” (Lion Bioscience AG, priority 1998, dated 2003)
pIC50: −log10 of the molar value.

What was measured:
[1] = target: T1, MCR-1 (Homo sapiens, UniProt Q01726); assay: Melanocortin receptor binding assay, competition with 125I-HP 467, HEK 293 cells expressing hMCR-1; details: inhibition of binding of 125I-HP 467, HEK 293 cells expressing MCR-1; for pIC50: read-out: MC-1 IC50
T1 construct: expressed in transfected cells; host or cells: HEK 293
T1 sequence (Q01726 whole entry): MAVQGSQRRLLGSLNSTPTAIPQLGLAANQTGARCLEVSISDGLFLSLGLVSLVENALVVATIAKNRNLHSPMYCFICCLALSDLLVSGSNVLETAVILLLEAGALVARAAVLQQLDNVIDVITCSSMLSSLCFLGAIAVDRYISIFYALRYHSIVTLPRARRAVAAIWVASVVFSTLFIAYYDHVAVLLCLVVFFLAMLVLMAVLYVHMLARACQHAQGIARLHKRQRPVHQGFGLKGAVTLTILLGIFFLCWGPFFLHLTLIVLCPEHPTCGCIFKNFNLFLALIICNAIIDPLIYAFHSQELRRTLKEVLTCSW
Outline: (§1)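 Intact-cell competition binding, 2.5 hr at 37 °C, in PBS/10% calf serum/1 mM CaCl2; hMCR-4 cells at 4×10^3 per tube, hMCR-1 cells at 2×10^4 per tube. Filtration on BSA/CaCl2-soaked GF/B, cold 50 mM Tris pH 7.4 washes, scintillation count.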

[2] = target: T2, MCR-4 (Homo sapiens, UniProt P32245); assay: Melanocortin receptor binding assay, competition with 125I-HP 467, HEK 293 cells expressing hMCR-4; details: inhibition of binding of 125I-HP 467, HEK 293 cells expressing MCR-4; read-out: MC-4 IC50
T2 construct: expressed in transfected cells; host or cells: HEK 293
T2 sequence (P32245 whole entry): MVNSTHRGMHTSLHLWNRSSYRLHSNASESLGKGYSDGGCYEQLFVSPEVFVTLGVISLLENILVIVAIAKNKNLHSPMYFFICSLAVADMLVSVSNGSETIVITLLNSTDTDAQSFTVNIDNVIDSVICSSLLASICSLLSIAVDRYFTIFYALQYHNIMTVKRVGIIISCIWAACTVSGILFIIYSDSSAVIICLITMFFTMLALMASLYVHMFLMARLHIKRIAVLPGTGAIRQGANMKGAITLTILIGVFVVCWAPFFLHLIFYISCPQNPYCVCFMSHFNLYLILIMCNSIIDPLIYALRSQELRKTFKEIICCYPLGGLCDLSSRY
Outline: as §1

Row | Structure (SMILES) | pIC50 [1] | pIC50 [2] | MC-1 IC50 [1]
1 | CCc1ccc(C2C(CN)c3ccccc3CN2CCCC(CN)NCCC2CCCCC2)cc1 (stereo not drawn) [TRG 2415-13] | 5.74 | 6.06 | 
2 | CCCCCc1ccc(C2C(CN)c3ccccc3CN2CCCC(CN)NCCC2CCCCC2)cc1 (stereo not drawn) [TRG 2415-14] | 5.77 | 5.03 | 
3 | CCNC(CN)CCCCN1Cc2ccccc2C(CN)C1c1ccc(O)cc1 (stereo not drawn) [TRG 2415-15] |  | 4.19 | no fit
4 | CCNC(CN)CCCCN1Cc2ccccc2C(CN)C1c1ccc(OCC)cc1 (stereo not drawn) [TRG 2415-16] | 5.88 | 5.40 | 
5 | CCCOc1ccc(C2C(CN)c3ccccc3CN2CCCCC(CN)NCC)cc1 (stereo not drawn) [TRG 2415-17] | 6.24 | 5.03 | 
6 | CCNC(CN)CCCCN1Cc2ccccc2C(CN)C1c1ccc(CC)cc1 (stereo not drawn) [TRG 2415-19] | 5.84 | 5.69 | 
7 | CCCCCc1ccc(C2C(CN)c3ccccc3CN2CCCC[C@@H](CN)NCC)cc1 (stereo partly drawn) [TRG 2415-20] | 6.56 | 5.34 | 
8 | CCNc1ccc(C2C(CNCCc3ccccc3)c3ccccc3CN2CCCC(CN)NCCCCNc2ccccc2)cc1 (stereo not drawn) [TRG 2419-1] | 6.96 | 5.52 | 
9 | CCNc1ccc(C2C(CNCCc3ccccc3)c3ccccc3CN2CCCC(CN)NCCCCNCc2ccccc2)cc1 (stereo not drawn) [TRG 2419-3] | 7.31 | 5.67 | 
10 | CCNc1ccc(C2C(CNCCc3ccccc3)c3ccccc3CN2CCCC(CN)NCCCCN(CC)CC)cc1 (stereo not drawn) [TRG 2419-4] | 7.24 | 4.84 | 
11 | CCNc1ccc(C2C(CN)c3ccccc3CN2CCCC(CN)NCCCCNCc2ccccc2)cc1 (stereo not drawn) [TRG 2419-6] | 7.09 | 5.19 | 
12 | CCNc1ccc(C2C(CN)c3ccccc3CN2CCCC(CN)NCCCCN(CC)CC)cc1 (stereo not drawn) [TRG 2419-7] | 6.85 | 5.00 | 
13 | CCNc1ccc(C2C(CN)c3ccccc3CN2CCCC(CN)NCCCCO)cc1 (stereo not drawn) [TRG 2419-8] | 5.96 | 5.16 | 
14 | CCNc1ccc(C2C(CN)c3ccccc3CN2CCCC(CN)NCCCCNc2ccccc2)cc1 (stereo not drawn) [TRG 2419-9] | 6.62 | 5.00 | 
15 | CCNc1ccc(C2C(CN)c3ccccc3CN2CCCC(CN)NCCCCNC(C)(C)C)cc1 (stereo not drawn) [TRG 2419-10] | 7.03 | 5.36 | 
16 | CCNc1ccc(C2C(CN)c3ccccc3CN2CCCC(CN)NCCCCN)cc1 (stereo not drawn) [TRG 2419-11] | 6.70 | 4.74 | 
17 | CCNc1ccc(C2C(CN)c3ccccc3CN2CCCC(CN)NCCCCNCCc2ccccc2)cc1 (stereo not drawn) [TRG 2419-12] | 7.14 | 4.78 | 
18 | CCNc1ccc(C2C(CN)c3ccccc3CN2CCCC(CN)NCCCCN2CCCCC2)cc1 (stereo not drawn) [TRG 2419-13] | 7.14 | 5.60 | 
19 | CCNc1ccc(C2C(CNCCc3ccccc3)c3ccccc3CN2CCCC(CN)NCCCCCNC(C)C)cc1 (stereo not drawn) [TRG 2420-1] | 7.34 | 5.82 | 

Row | Structure (SMILES) | pIC50 [1] | pIC50 [2] | MC-1 IC50 [1]
20 | CCNc1ccc(C2C(CNCCc3ccccc3)c3ccccc3CN2CCCC(CN)NCCCCCNCc2ccccc2)cc1 (stereo not drawn) [TRG 2420-2] | 7.12 | 5.39 | 
21 | CCNc1ccc(C2C(CNCCc3ccccc3)c3ccccc3CN2CCCC(CN)NCCCCCN(CC)CC)cc1 (stereo not drawn) [TRG 2420-3] | 7.52 | 5.08 | 
22 | CCNc1ccc(C2C(CNCCc3ccccc3)c3ccccc3CN2CCCC(CN)NCCCCCNCCc2ccccc2)cc1 (stereo not drawn) [TRG 2420-4] | 7.17 | 5.38 | 
23 | CCNc1ccc(C2C(CNCCc3ccccc3)c3ccccc3CN2CCCC(CN)NCC2CC2CNC(C)C)cc1 (stereo not drawn) [TRG 2420-5] | 7.37 | 5.01 | 
24 | CCNc1ccc(C2C(CNCCc3ccccc3)c3ccccc3CN2CCCC(CN)NCC2CC2CNCc2ccccc2)cc1 (stereo not drawn) [TRG 2420-6] | 6.99 | 5.29 | 
25 | CCNc1ccc(C2C(CNCCc3ccccc3)c3ccccc3CN2CCCC(CN)NCC2CC2CN(CC)CC)cc1 (stereo not drawn) [TRG 2420-7] | 7.20 | 5.74 | 
26 | CCNc1ccc(C2C(CNCCc3ccccc3)c3ccccc3CN2CCCC(CN)NCC2CC2CNCCc2ccccc2)cc1 (stereo not drawn) [TRG 2420-8] | 6.68 | 5.63 | 
27 | CCNc1ccc(C2C(CNCCc3ccccc3)c3ccccc3CN2CCCC(CN)NCCOCCNC(C)C)cc1 (stereo not drawn) [TRG 2420-9] | 7.40 | 5.49 | 
28 | CCNc1ccc(C2C(CNCCc3ccccc3)c3ccccc3CN2CCCC(CN)NCCOCCNCc2ccccc2)cc1 (stereo not drawn) [TRG 2420-10] | 7.26 | 6.03 | 
29 | CCNc1ccc(C2C(CNCCc3ccccc3)c3ccccc3CN2CCC[C@@H](CN)NCCOCCN(CC)CC)cc1 (stereo partly drawn) [TRG 2420-11] | 7.55 | 5.33 | 
30 | CCNc1ccc(C2C(CNCCc3ccccc3)c3ccccc3CN2CCCC(CN)NCCOCCNCCc2ccccc2)cc1 (stereo not drawn) [TRG 2420-12] | 7.10 | 5.82 | 
31 | CCNc1ccc(C2C(CNCCc3ccccc3)c3ccccc3CN2CCCC(CN)NCc2ccccc2CNC(C)C)cc1 (stereo not drawn) [TRG 2420-13] | 7.19 | 6.17 | 
32 | CCNc1ccc(C2C(CNCCc3ccccc3)c3ccccc3CN2CCCC(CN)NCc2ccccc2CNCc2ccccc2)cc1 (stereo not drawn) [TRG 2420-14] | 6.87 | 6.54 | 
33 | CCNc1ccc(C2C(CNCCc3ccccc3)c3ccccc3CN2CCCC(CN)NCc2ccccc2CN(CC)CC)cc1 (stereo not drawn) [TRG 2420-15] | 7.15 | 5.86 | 
34 | CCNc1ccc(C2C(CNCCc3ccccc3)c3ccccc3CN2CCCC(CN)NCc2ccccc2CNCCc2ccccc2)cc1 (stereo not drawn) [TRG 2420-16] | 6.79 | 5.92 | 
35 | CCNc1ccc(C2C(CN)c3ccccc3CN2CCCC(CN)NCC2CC2CNC(C)C)cc1 (stereo not drawn) [TRG 2420-25] | 6.99 | 5.32 | 
36 | CCNc1ccc(C2C(CN)c3ccccc3CN2CCCC(CN)NCC2CC2CNCc2ccccc2)cc1 (stereo not drawn) [TRG 2420-26] | 7.03 | 5.30 | 
37 | CCNc1ccc(C2C(CN)c3ccccc3CN2CCCC(CN)NCC2CC2CN(CC)CC)cc1 (stereo not drawn) [TRG 2420-27] | 7.40 | 5.38 | 
38 | CCNc1ccc(C2C(CN)c3ccccc3CN2CCCC(CN)NCC2CC2CNCCc2ccccc2)cc1 (stereo not drawn) [TRG 2420-28] | 6.69 | 5.39 | 

Row | Structure (SMILES) | pIC50 [1] | pIC50 [2] | MC-1 IC50 [1]
39 | NCC(CCCCN1Cc2ccccc2C(CNCCc2ccccc2)C1c1cc(C(F)(F)F)cc(C(F)(F)F)c1)NCc1ccccc1 (stereo not drawn) [TRG 2421-1] | 5.38 | 5.75 | 
40 | NCC(CCCCN1Cc2ccccc2C(CNCCc2ccccc2)C1c1cc(C(F)(F)F)cc(C(F)(F)F)c1)NCc1ccc(Br)cc1 (stereo not drawn) [TRG 2421-3] | 5.31 | 5.02 | 
41 | COc1ccc(CNC(CN)CCCCN2Cc3ccccc3C(CNCCc3ccccc3)C2c2cc(C(F)(F)F)cc(C(F)(F)F)c2)cc1 (stereo not drawn) [TRG 2421-4] | 5.59 | 5.55 | 
42 | NCC(CCCCN1Cc2ccccc2C(CNCCc2ccccc2)C1c1cc(C(F)(F)F)cc(C(F)(F)F)c1)NCc1ccc(-c2ccccc2)cc1 (stereo not drawn) [TRG 2421-5] | 4.95 | 5.03 | 
43 | NCC(CCCCN1Cc2ccccc2C(CNCCc2ccc(O)cc2)C1c1cc(C(F)(F)F)cc(C(F)(F)F)c1)NCc1ccccc1 (stereo not drawn) [TRG 2421-6] | 5.65 | 6.12 | 
44 | Cc1ccc(CNC(CN)CCCCN2Cc3ccccc3C(CNCCc3ccc(O)cc3)C2c2cc(C(F)(F)F)cc(C(F)(F)F)c2)cc1 (stereo not drawn) [TRG 2421-7] | 5.50 | 5.34 | 
45 | COc1ccc(CNC(CN)CCCCN2Cc3ccccc3C(CNCCc3ccc(O)cc3)C2c2cc(C(F)(F)F)cc(C(F)(F)F)c2)cc1 (stereo not drawn) [TRG 2421-9] | 5.82 | 5.76 | 
46 | NCC(CCCCN1Cc2ccccc2C(CNCCc2ccc(O)cc2)C1c1cc(C(F)(F)F)cc(C(F)(F)F)c1)NCc1ccc(-c2ccccc2)cc1 (stereo not drawn) [TRG 2421-10] | 5.32 | 5.04 | 
47 | COc1ccc(CCNCC2c3ccccc3CN(CCCCC(CN)NCc3ccc(C)cc3)C2c2cc(C(F)(F)F)cc(C(F)(F)F)c2)cc1 (stereo not drawn) [TRG 2421-12] | 5.59 | 5.85 | 
48 | COc1ccc(CCNCC2c3ccccc3CN(CCCCC(CN)NCc3ccc(Br)cc3)C2c2cc(C(F)(F)F)cc(C(F)(F)F)c2)cc1 (stereo not drawn) [TRG 2421-13] | 5.36 | 5.09 | 
49 | COc1ccc(CCNCC2c3ccccc3CN(CCCCC(CN)NCc3ccc(OC)cc3)C2c2cc(C(F)(F)F)cc(C(F)(F)F)c2)cc1 (stereo not drawn) [TRG 2421-14] | 5.46 | 5.77 | 
50 | COc1ccc(CCNCC2c3ccccc3CN(CCCCC(CN)NCc3ccc(-c4ccccc4)cc3)C2c2cc(C(F)(F)F)cc(C(F)(F)F)c2)cc1 (stereo not drawn) [TRG 2421-15] | 5.11 | 5.12 | 
51 | COc1ccc(CCNCC2c3ccccc3CN(CCCCC(CN)NCc3ccccc3)C2c2cc(C(F)(F)F)cc(C(F)(F)F)c2)cc1OC (stereo not drawn) [TRG 2421-16] | 5.62 | 6.44 | 
52 | COc1ccc(CCNCC2c3ccccc3CN(CCCCC(CN)NCc3ccc(Br)cc3)C2c2cc(C(F)(F)F)cc(C(F)(F)F)c2)cc1OC (stereo not drawn) [TRG 2421-18] | 5.32 | 5.87 | 
53 | COc1ccc(CNC(CN)CCCCN2Cc3ccccc3C(CNCCc3ccc(OC)c(OC)c3)C2c2cc(C(F)(F)F)cc(C(F)(F)F)c2)cc1 (stereo not drawn) [TRG 2421-19] | 5.79 | 6.28 | 
54 | COc1ccc(CCNCC2c3ccccc3CN(CCCCC(CN)NCc3ccc(-c4ccccc4)cc3)C2c2cc(C(F)(F)F)cc(C(F)(F)F)c2)cc1OC (stereo not drawn) [TRG 2421-20] | 5.37 | 5.71 | 
55 | CCOc1ccc(CCNCC2c3ccccc3CN(CCCCC(CN)NCc3ccccc3)C2c2cc(C(F)(F)F)cc(C(F)(F)F)c2)cc1 (stereo not drawn) [TRG 2421-21] | 5.59 | 5.40 | 
56 | CCOc1ccc(CCNCC2c3ccccc3CN(CCCCC(CN)NCc3ccc(C)cc3)C2c2cc(C(F)(F)F)cc(C(F)(F)F)c2)cc1 (stereo not drawn) [TRG 2421-22] | 5.52 | 5.09 | 
57 | CCOc1ccc(CCNCC2c3ccccc3CN(CCCCC(CN)NCc3ccc(Br)cc3)C2c2cc(C(F)(F)F)cc(C(F)(F)F)c2)cc1 (stereo not drawn) [TRG 2421-23] | 5.13 | 5.09 | 
